Experimental data taken from patent US8486924B2, “Taxane delivery system” (Celator Pharmaceuticals, Inc., priority 2007, dated 2013).

Assays:
[1] = prodrug/POPC/2.5kPS3k (1:1:2) nanoparticles in water; volume weighted average
Description: The prodrug, co-lipid and stabilizer polymers (typically on a 1:1:2 w/w basis) were dissolved in ethanol/THF (4:1) at a concentration of 40 mg/ml. The solvent was rapidly diluted with water using a four port CVIJ mixer^13, 14 with flow rates set at […] (solvent/water/water/water). Flow rates were controlled using Harvard Apparatus PHD2000 syringe pumps. The resultant solution was then dialyzed against water to remove residual solvent. […] When higher concentrations were required the dialyzed solution was diluted with equi-volumes of 600 mM sucrose and then concentrated using a 100 kD, 0.5 mm lumen, 60 cm path length MidGee hoop cartridge (GE Healthcare Life Sciences, Piscataway, N.J.) with a peristaltic pump. Particle size was determined using a Malvern Zetasizer Nano-ZS particle sizer and reported as volume weighted data.
Formulations were composed of a prodrug, a co-lipid and an amphipathic stabilizer in a weight ratio of 1:1:2, respectively at a concentration of 40 mg per mL of solvent. […] Poly(ethylene glycol)-b-polystyrene (2kPS3k or 2.5kPS3k) was used as the amphipathic stabilizer. Other stabilizers may also be used.

[2] = co-lipid POPC, prodrug/co-lipid/2.5kPS3k (1:1:2), vortexing 30 seconds
Description: The physical stability of formulations was investigated by examining changes in particle size after vortexing prodrug/co-lipid/2.5kPS3k (1:1:2) nanoparticles in water, 150 mM saline or 300 mM sucrose (Table 1). […] The increase in particle size was monitored by using dynamic light scattering to measure the Z average (the intensity weighted mean size of the particle distribution) value for samples before and after vigorous vortexing. The change in the Zave value was used as surrogate readout for the formation of aggregates or precipitates resulting from mechanical instability, where a higher value for ΔZave indicated a higher level of aggregation or precipitation (Table 1).

[3] = system: HT29 human colon carcinoma cells
Description: Female athymic nude mice (7-8 weeks old) were inoculated subcutaneously with 100 μl HT29 human colon carcinoma cells (2×10^6 cells) using a 26 gauge needle. Mice were randomly grouped (n=6/group) with a mean tumor size between 80 and 120 mg prior to first treatment. […] Subsequent injections were made according to the designated schedule. Tumor length and width measurements, body weight and in life observations were recorded 2-3 times per week. Tumor weight was calculated according to the formula (L×W^2)/2.
The relative efficacies of nanoparticle formulations of 1, 2, 4, 5, 6 and 7 were determined in the HT29 model using a 36 μmol/kg dose on a Q4Dx6 schedule (FIG. 3). Saline was used as a negative control.
(§1) The activity of 7 in POPC/2.5kPS3k nanoparticle formulations relative to paclitaxel was determined by comparing the efficacy of doses ranging from 0.25 to 3 mole equivalents of paclitaxel (FIG. 4) in the HT29 tumor model. Taxol® dosed at 23 μmol/kg on a Q2Dx5 schedule was used as a positive control.
The tumor growth data was analyzed by two methods to determine what dose of 7 would be equivalent to the Taxol® positive control.

[4] = Maximum tolerated dose on Q2D schedule in HT29 tumor model; assay type: in vivo, mice; details: POPC/2.5kPS3k nanoparticle formulation; Q2Dx5 schedule
Description: as §1, with “control. The dosing regime was chosen since the greatest efficacy for 7 was observed on a Q2D schedule, which was also optimal for Taxol®, and the maximum tolerated treatment course at this Taxol® dose was 5 injections. The maximum tolerate dose of 7 on this schedule was approximately 3 paclitaxel equivalents (69 μmol/kg).” for “control.”

[5] = system: MCF-7 human tumor cell line; details: read-out: IC50 values MCF-7; prodrug/POPC/2kPS3k (1:1:2) formulations; 72 hours; MTT; ± SD
[6] = mouse, in vivo
Description: Athymic nude mice (n=3/timepoint) were injected iv with test samples (10 μl/g body weight, to a maximum of 250 μl). Blood was collected at the designated time point by cardiac puncture and placed into EDTA coated microtainer tubes (BD Biosciences). The tubes were centrifuged at 2800 rpm for 10 minutes. Plasma was recovered and 50 μl aliquots analyzed by HPLC for drug content. Samples containing ^3H—CHE (50 μl) were diluted with PicoFluor40™ scintillation fluid (Packard) and counted on a Beckman-Coulter LS 6500 Multipurpose scintillation counter. The total drug (counts) per mouse in the blood compartment was calculated assuming a plasma volume of 0.04125 mL per gram of body weight.
Elimination studies tracking both the prodrug and the particle were conducted to obtain a more accurate description of the partitioning behavior of the prodrugs in vivo (FIG. 1). Prodrug elimination was followed by HPLC, while particle elimination rates were determined by labeling nanoparticles with tritiated cholesterylhexadecyl ether (3H—CHE).
Formulations comprised of 1/VES/2kPS3k (1:1:2) and 2/VES/2kPS3k (1:1:2) were labeled with trace amounts of ^3H—CHE and plasma levels of both the label and prodrug were monitored in Foxn1^nu mice (FIG. 1, Panel A).
Effect of prodrug partitioning on plasma drug elimination was determined. The prodrug panel was screened using prodrug/POPC/2kPS3k (1:1:2) nanoparticles in Foxn1^nu mice to determine elimination rates for the different prodrug conjugates (FIG. 2). […] Conjugates were formulated at a concentration of 0.7 mg/mL.
In order to estimate the partitioning half-life for each prodrug, it was assumed that 1 tracked the particle elimination rate based on the results discussed above. The elimination of all other prodrugs were then fitted to four parameter double exponential decay curves and normalized against 1.

[7] = system: A2780 human tumor cell line; experiment: MTT growth inhibition, A2780 cells, 72 hours; details: read-out: IC50 values A2780, prodrug/POPC/2kPS3k (1:1:2) formulations, ± SD

CCCCCCCCCCCCCCCCCCCCCCOC(=O)COCC(=O)OC(C(=O)OC1CC2(O)C(OC(=O)c3ccccc3)C3C4(OC(C)=O)COC4CC(O)C3(C)C(=O)C(OC(C)=O)C(=C1C)C2(C)C)C(NC(=O)c1ccccc1)c1ccccc1 (stereo not shown) [Prodrug 7, 2′-O-(5″-O-docosanyldiglycoloyl)-paclitaxel]
Diameter [1]: 23 nm | ΔZave 150 mM saline ([2]; 150 mM saline): 24 nm | ΔZave 300 mM sucrose ([2]; 300 mM sucrose): 0 nm | ΔZave water ([2]; water): 18 nm | dose achieving parity with Taxol (delay in reaching tumor size of 125 mg from start of treatment) ([3]; HT29, Q2Dx5, fitted curve, normalized to Taxol 23 μmol/kg): 1.75 dose equivalents of paclitaxel | dose achieving parity with Taxol (delay in reaching tumor size of 300 mg relative to saline) ([3]; HT29, Q2Dx5, linear dose response, normalized to Taxol 23 μmol/kg): 1.65 paclitaxel equivalents | dose achieving equivalent efficacy to Taxol at MTD ([3]; HT29, titration 0.25x to 3x paclitaxel equivalents): approximately 1.7 paclitaxel equivalents | tumor size at day 60 ([3]; HT29, treated at MTD, Q2Dx5): below 50 mg | treatment induced delay in reaching a mean tumor size of 500 mm^3 ([3]; HT29 model, 36 μmol/kg, Q4Dx6, nanoparticle formulations): 17 days | maximum tolerated dose [4]: 69 µmol/kg | IC50 [5]: 23.5 ± 1.3 nM | partitioning half life [6]: ~10 h | IC50 [7]: 29.5 ± 5.2 nM
